Experimental data from ChEMBL document CHEMBL3271942, “(Vinylaryloxy)acetic acids. A new class of diuretic agents. 2. (4-(3-Oxo-1-alkenyl)phenoxy)acetic acids” (1976).

Legend:
[1] = tested on: Canis familiaris; assay: Diuretic activity in mongrel dog assessed as urine volume at 10 mg/kg, iv measured after 15 and 45 mins (reference value: 1 to 2 ml/min); format: functional, Canis lupus familiaris
[2] = tested on: Canis familiaris; assay: Diuretic activity in mongrel dog assessed as excretion of sodium ion at 10 mg/kg, iv measured after 15 and 45 mins (reference value: 13 to 54 uequiv/min); format: functional, Canis lupus familiaris, Urine
[3] = tested on: Canis familiaris; assay: Diuretic activity in mongrel dog assessed as excretion of chloride ion at 10 mg/kg, iv measured after 15 and 45 mins (reference value: 4 to 64 uequiv/min); format: functional, Canis lupus familiaris, Urine
[4] = tested on: Canis familiaris; assay: Diuretic activity in mongrel dog assessed as excretion of potassium ion at 10 mg/kg, iv measured after 15 and 45 mins (reference value: 16 to 37 uequiv/min); format: functional, Canis lupus familiaris, Urine
[5] = tested on: Canis familiaris; assay: Diuretic activity in mongrel dog assessed as excretion of chloride ion at 5 mg/kg, iv measured after 15 and 45 mins (reference value: 7 to 13 uequiv/min); format: functional, Canis lupus familiaris, Urine
[6] = tested on: Canis familiaris; assay: Diuretic activity in mongrel dog assessed as urine volume at 5 mg/kg, iv measured after 15 and 45 mins (reference value: 1 to 2 ml/min); format: functional, Canis lupus familiaris
[7] = tested on: Canis familiaris; assay: Diuretic activity in mongrel dog assessed as excretion of sodium ion at 5 mg/kg, iv measured after 15 and 45 mins (reference value: 5 to 99 uequiv/min); format: functional, Canis lupus familiaris, Urine
[8] = tested on: Canis familiaris; assay: Diuretic activity in mongrel dog assessed as excretion of potassium ion at 5 mg/kg, iv measured after 15 and 45 mins (reference value: 15 to 55 uequiv/min); format: functional, Canis lupus familiaris, Urine
[9] = tested on: Canis familiaris; assay: Diuretic activity in mongrel dog assessed as excretion of sodium ion at 0.1 mg/kg, iv measured after 15 and 45 mins (reference value: 36 to 73 uequiv/min); format: functional, Canis lupus familiaris, Urine
[10] = tested on: Canis familiaris; assay: Diuretic activity in mongrel dog assessed as excretion of potassium ion at 0.1 mg/kg, iv measured after 15 and 45 mins (reference value: 14 to 35 uequiv/min); format: functional, Canis lupus familiaris, Urine
[11] = tested on: Canis familiaris; assay: Diuretic activity in mongrel dog assessed as excretion of chloride ion at 0.1 mg/kg, iv measured after 15 and 45 mins (reference value: 14 to 48 uequiv/min); format: functional, Canis lupus familiaris, Urine
[12] = tested on: Canis familiaris; assay: Diuretic activity in mongrel dog assessed as urine volume at 0.1 mg/kg, iv measured after 15 and 45 mins (reference value: 1 to 3 ml/min); format: functional, Canis lupus familiaris
[13] = tested on: Canis familiaris; assay: Diuretic activity in mongrel dog assessed as excretion of sodium ion at 1 mg/kg, iv measured after 15 and 45 mins (reference value: 26 to 58 uequiv/min); format: functional, Canis lupus familiaris, Urine
[14] = tested on: Canis familiaris; assay: Diuretic activity in mongrel dog assessed as excretion of chloride ion at 1 mg/kg, iv measured after 15 and 45 mins (reference value: 10 to 26 uequiv/min); format: functional, Canis lupus familiaris, Urine
[15] = tested on: Canis familiaris; assay: Diuretic activity in mongrel dog assessed as excretion of potassium ion at 1 mg/kg, iv measured after 15 and 45 mins (reference value: 46 to 28 uequiv/min); format: functional, Canis lupus familiaris, Urine
[16] = tested on: Canis familiaris; assay: Diuretic activity in mongrel dog assessed as urine volume at 1 mg/kg, iv measured after 15 and 45 mins (reference value: 1 to 4 ml/min); format: functional, Canis lupus familiaris
[17] = tested on: Canis familiaris; assay: Diuretic activity in mongrel dog assessed as excretion of sodium ion per 6 hrs at 2 mg/kg, po (reference value: 2 mequiv/min); format: functional, Canis lupus familiaris, Urine
[18] = tested on: Canis familiaris; assay: Diuretic activity in mongrel dog assessed as urine volume per 6 hrs at 1 mg/kg, po (reference value: 180 ml); format: functional, Canis lupus familiaris
[19] = tested on: Canis familiaris; assay: Diuretic activity in mongrel dog assessed as excretion of chloride ion per 6 hrs at 2 mg/kg, po (reference value: 2 mequiv/min); format: functional, Canis lupus familiaris, Urine
[20] = tested on: Canis familiaris; assay: Diuretic activity in mongrel dog assessed as excretion of potassium ion per 6 hrs at 1 mg/kg, po (reference value: 1 mequiv/min); format: functional, Canis lupus familiaris, Urine
[21] = tested on: Canis familiaris; assay: Diuretic activity in mongrel dog assessed as urine volume per 6 hrs at 2 mg/kg, po (reference value: 180 ml); format: functional, Canis lupus familiaris
[22] = tested on: Canis familiaris; assay: Diuretic activity in mongrel dog assessed as excretion of chloride ion per 6 hrs at 1 mg/kg, po (reference value: 2 mequiv/min); format: functional, Canis lupus familiaris, Urine
[23] = tested on: Canis familiaris; assay: Diuretic activity in mongrel dog assessed as excretion of potassium ion per 6 hrs at 2 mg/kg, po (reference value: 1 mequiv/min); format: functional, Canis lupus familiaris, Urine
[24] = tested on: Canis familiaris; assay: Diuretic activity in mongrel dog assessed as excretion of sodium ion per 6 hrs at 1 mg/kg, po (reference value: 2 mequiv/min); format: functional, Canis lupus familiaris, Urine
[25] = tested on: Canis familiaris; assay: Diuretic activity in mongrel dog assessed as excretion of chloride ion at 25 mg/kg, iv measured after 15 and 45 mins (reference value: 6 uequiv/min); format: functional, Canis lupus familiaris, Urine
[26] = tested on: Canis familiaris; assay: Diuretic activity in mongrel dog assessed as excretion of potassium ion at 25 mg/kg, iv measured after 15 and 45 mins (reference value: 42 uequiv/min); format: functional, Canis lupus familiaris, Urine
[27] = tested on: Canis familiaris; assay: Diuretic activity in mongrel dog assessed as excretion of sodium ion at 25 mg/kg, iv measured after 15 and 45 mins (reference value: 42 uequiv/min); format: functional, Canis lupus familiaris, Urine
[28] = tested on: Canis familiaris; assay: Diuretic activity in mongrel dog assessed as urine volume at 25 mg/kg, iv measured after 15 and 45 mins (reference value: 5 ml/min); format: functional, Canis lupus familiaris

Structure (SMILES)	Activity [1] [mL/min]	Activity [2] [uEq/min]	Activity [3] [uEq/min]	Activity [4] [uEq/min]	Activity [5] [uEq/min]	Activity [6] [mL/min]	Activity [7] [uEq/min]	Activity [8] [uEq/min]	also measured
CC(=O)/C=C/c1ccc(OCC(=O)O)cc1	5	91	55	50	–	–	–	–	–
CC(=O)/C=C/c1ccc(OCC(=O)O)c(Cl)c1Cl	–	–	–	–	1078	8	911	76	–
COc1cc(/C=C/C(C)=O)ccc1OCC(=O)O	–	–	–	–	27	1	13	36	–
O=C(O)COc1ccc(/C=C2\CCC2=O)c(Cl)c1Cl	8	833	822	93	–	–	–	–	Activity [9]: 393 uEq/min; Activity [10]: 89 uEq/min; Activity [11]: 408 uEq/min; Activity [12]: 9 mL/min
O=C(O)COc1ccc(/C=C2\CCCC2=O)c(Cl)c1Cl	–	–	–	–	–	–	–	–	Activity [13]: 298 uEq/min; Activity [14]: 330 uEq/min; Activity [15]: 74 uEq/min; Activity [16]: 4 mL/min
CC(=O)/C(C)=C/c1ccc(OCC(=O)O)c(Cl)c1Cl	–	–	–	–	1140	10	1096	132	Activity [17]: 16 milliequivalent; Activity [18]: 422 mL; Activity [19]: 21 milliequivalent; Activity [20]: 5 milliequivalent; Activity [21]: 506 mL; Activity [22]: 9 milliequivalent; Activity [23]: 3 milliequivalent; Activity [24]: 9 milliequivalent
CCC(=O)/C(C)=C/c1ccc(OCC(=O)O)c(Cl)c1Cl	2	79	67	42	–	–	–	–	–
CC(=O)/C=C/c1ccc(OCC(=O)O)cc1Cl	3	265	258	79	–	–	–	–	–
CCC(=O)/C=C/c1ccc(OCC(=O)O)c(Cl)c1Cl	8	973	1089	118	–	–	–	–	–
C/C(C=O)=C\c1ccc(OCC(=O)O)c(Cl)c1Cl	–	–	–	–	130	3	140	51	Activity [25]: 542 uEq/min; Activity [26]: 86 uEq/min; Activity [27]: 449 uEq/min; Activity [28]: 5 mL/min
O=C(O)COc1ccc(/C=C2\CCCCC2=O)c(Cl)c1Cl	–	–	–	–	1340	12	1306	119	–
CC(=O)C(=Cc1ccc(OCC(=O)O)c(Cl)c1Cl)C(C)=O	–	–	–	–	–	–	–	–	Activity [9]: 984 uEq/min; Activity [10]: 87 uEq/min; Activity [15]: 104 uEq/min; Activity [16]: 11 mL/min; Activity [12]: 9 mL/min
C=C(CC)C(=O)c1ccc(OCC(=O)O)c(Cl)c1Cl [ETHACRYNIC ACID]	22	2989	3324	194	–	–	–	–	Activity [13]: 188 uEq/min; Activity [14]: 244 uEq/min; Activity [18]: 560 mL; Activity [20]: 5 milliequivalent; Activity [15]: 52 uEq/min; Activity [16]: 6 mL/min; Activity [22]: 26 milliequivalent; Activity [24]: 21 milliequivalent
NS(=O)(=O)c1cc(C(=O)O)c(NCc2ccco2)cc1Cl [FUROSEMIDE]	–	–	–	–	–	–	–	–	Activity [18]: 624 mL; Activity [20]: 4 milliequivalent; Activity [22]: 18 milliequivalent; Activity [24]: 19 milliequivalent
